Experimental data taken from PubChem BioAssay AID2060621 (Molecular Pharmacology Branch, DTP, NCI, 2025).
Each block holds one compound with its values, some of them ahead of it.

Test system: 324938-238-R-J1-PDC complex spheroids viability
Test: Anticancer human tumor 324938-238-R-J1-PDC patient-derived bladder carcinoma cell line growth inhibition [CLK]
Settings: for IC50: curve of first compound; for viability, T/C: stronger effect = lower value
In short: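 Multi-cell-type spheroids combined patient-derived tumor cells with HUVEC endothelial cells and human mesenchymal stem cells. Paired agents were dosed in half-log steps down from about clinical Cmax, or from 10 microM where Cmax was unknown.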

[1] = second compound 0.0316 µM, first compound 0.0316 µM
[2] = second compound 0.0316 µM, first compound 0.1 µM
[3] = second compound 0.0316 µM, first compound 0.316 µM
[4] = second compound 0.0316 µM, first compound 1 µM
[5] = second compound 0.0316 µM, first compound 3.16 µM
[6] = second compound 0.0316 µM, first compound 10 µM
[7] = second compound 0.1 µM, first compound 0.0316 µM
[8] = second compound 0.1 µM, first compound 0.1 µM
[9] = second compound 0.1 µM, first compound 0.316 µM
[10] = second compound 0.1 µM, first compound 1 µM
[11] = second compound 0.1 µM, first compound 3.16 µM
[12] = second compound 0.1 µM, first compound 10 µM
[13] = second compound 0.316 µM, first compound 0.0316 µM
[14] = second compound 0.316 µM, first compound 0.1 µM
[15] = second compound 0.316 µM, first compound 0.316 µM
[16] = second compound 0.316 µM, first compound 1 µM
[17] = second compound 0.316 µM, first compound 3.16 µM
[18] = second compound 0.316 µM, first compound 10 µM
[19] = second compound 1 µM, first compound 0.0316 µM
[20] = second compound 1 µM, first compound 0.1 µM
[21] = second compound 1 µM, first compound 0.316 µM
[22] = second compound 1 µM, first compound 1 µM
[23] = second compound 1 µM, first compound 3.16 µM
[24] = second compound 1 µM, first compound 10 µM
[25] = second compound 3.16 µM, first compound 0.0316 µM
[26] = second compound 3.16 µM, first compound 0.1 µM
[27] = second compound 3.16 µM, first compound 0.316 µM
[28] = second compound 3.16 µM, first compound 1 µM
[29] = second compound 3.16 µM, first compound 3.16 µM
[30] = second compound 3.16 µM, first compound 10 µM
[31] = second compound 10 µM, first compound 0.0316 µM
[32] = second compound 10 µM, first compound 0.1 µM
[33] = second compound 10 µM, first compound 0.316 µM
[34] = second compound 10 µM, first compound 1 µM
[35] = second compound 10 µM, first compound 3.16 µM
[36] = second compound 10 µM, first compound 10 µM
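Note: viability read after seven days of drug exposure.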
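Throughout, for viability, T/C: 100% = DMSO vehicle control wells.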

IC50 (second compound 0.0316 µM): 1.27 nM
IC50 (second compound 0.1 µM): < 0.949 nM
IC50 (second compound 0.316 µM): < 0.949 nM
IC50 (second compound 1 µM): < 0.949 nM
IC50 (second compound 3.16 µM): < 0.949 nM
IC50 (second compound 10 µM): < 0.949 nM
SMILES: CC(C)CC(NC(=O)C(Cc1ccccc1)NC(=O)c1cnccn1)B(O)O (stereo unspecified) + CNC(=O)c1ccc(Nc2nc(OC3CCCC3)c3c(-c4ccc5nc(C)oc5c4)c[nH]c3n2)c(OC)c1
viability, T/C (second compound 0.0316 µM, first compound 0.000949 µM): 66.2%
viability, T/C (second compound 0.0316 µM, first compound 0.003 µM): 1.72%
viability, T/C (second compound 0.0316 µM, first compound 0.00949 µM): 0.22%
viability, T/C (second compound 0.0316 µM, first compound 0.03 µM): 0.21%
viability, T/C (second compound 0.0316 µM, first compound 0.0949 µM): 0.13%
viability, T/C (second compound 0.0316 µM, first compound 0.3 µM): 0.19%
viability, T/C (second compound 0.1 µM, first compound 0.000949 µM): 37.7%
viability, T/C (second compound 0.1 µM, first compound 0.003 µM): 1.25%
viability, T/C (second compound 0.1 µM, first compound 0.00949 µM): 0.18%
viability, T/C (second compound 0.1 µM, first compound 0.03 µM): 0.13%
viability, T/C (second compound 0.1 µM, first compound 0.0949 µM): 0.55%
viability, T/C (second compound 0.1 µM, first compound 0.3 µM): 0.13%
viability, T/C (second compound 0.316 µM, first compound 0.000949 µM): 21.6%
viability, T/C (second compound 0.316 µM, first compound 0.003 µM): 1.05%
viability, T/C (second compound 0.316 µM, first compound 0.00949 µM): 0.17%
viability, T/C (second compound 0.316 µM, first compound 0.03 µM): 0.08%
viability, T/C (second compound 0.316 µM, first compound 0.0949 µM): 0.1%
viability, T/C (second compound 0.316 µM, first compound 0.3 µM): 0.13%
viability, T/C (second compound 1 µM, first compound 0.000949 µM): 17.3%
viability, T/C (second compound 1 µM, first compound 0.003 µM): 0.5%
viability, T/C (second compound 1 µM, first compound 0.00949 µM): 0.13%
viability, T/C (second compound 1 µM, first compound 0.03 µM): 0.1%
viability, T/C (second compound 1 µM, first compound 0.0949 µM): 0.1%
viability, T/C (second compound 1 µM, first compound 0.3 µM): 0.12%
viability, T/C (second compound 3.16 µM, first compound 0.000949 µM): 12.2%
viability, T/C (second compound 3.16 µM, first compound 0.003 µM): 0.3%
viability, T/C (second compound 3.16 µM, first compound 0.00949 µM): 0.2%
viability, T/C (second compound 3.16 µM, first compound 0.03 µM): 0.09%
viability, T/C (second compound 3.16 µM, first compound 0.0949 µM): 0.14%
viability, T/C (second compound 3.16 µM, first compound 0.3 µM): 0.16%
viability, T/C (second compound 10 µM, first compound 0.000949 µM): 12%
viability, T/C (second compound 10 µM, first compound 0.003 µM): 0.29%
viability, T/C (second compound 10 µM, first compound 0.00949 µM): 0.87%
viability, T/C (second compound 10 µM, first compound 0.03 µM): 0.13%
viability, T/C (second compound 10 µM, first compound 0.0949 µM): 1.24%
viability, T/C (second compound 10 µM, first compound 0.3 µM): 0.19%

IC50 (second compound 0.0316 µM): 1390 nM
IC50 (second compound 0.1 µM): < 31.6 nM
IC50 (second compound 0.316 µM): < 31.6 nM
IC50 (second compound 1 µM): < 31.6 nM
IC50 (second compound 3.16 µM): < 31.6 nM
IC50 (second compound 10 µM): < 31.6 nM
SMILES: CC1COCCN1c1cc(C2(S(C)(=N)=O)CC2)nc(-c2ccnc3[nH]ccc23)n1 (stereo unspecified) + CNC(=O)c1ccc(Nc2nc(OC3CCCC3)c3c(-c4ccc5nc(C)oc5c4)c[nH]c3n2)c(OC)c1
viability, T/C [1]: 90.4%
viability, T/C [2]: 89.2%
viability, T/C [3]: 71%
viability, T/C [4]: 60.7%
viability, T/C [5]: 31.1%
viability, T/C [6]: 15.5%
viability, T/C [7]: 30.8%
viability, T/C [8]: 29.2%
viability, T/C [9]: 26.2%
viability, T/C [10]: 27.4%
viability, T/C [11]: 24.1%
viability, T/C [12]: 17.1%
viability, T/C [13]: 18.6%
viability, T/C [14]: 19.4%
viability, T/C [15]: 17.2%
viability, T/C [16]: 17.4%
viability, T/C [17]: 12.9%
viability, T/C [18]: 10.9%
viability, T/C [19]: 14.7%
viability, T/C [20]: 15.8%
viability, T/C [21]: 16%
viability, T/C [22]: 12.6%
viability, T/C [23]: 13.9%
viability, T/C [24]: 7.97%
viability, T/C [25]: 16.2%
viability, T/C [26]: 15.1%
viability, T/C [27]: 16.9%
viability, T/C [28]: 15.6%
viability, T/C [29]: 13.1%
viability, T/C [30]: 7.09%
viability, T/C [31]: 16.6%
viability, T/C [32]: 15.1%
viability, T/C [33]: 16.7%
viability, T/C [34]: 15.2%
viability, T/C [35]: 14.5%
viability, T/C [36]: 8.22%

IC50 (second compound 0.0316 µM): 4260 nM
IC50 (second compound 0.1 µM): < 31.6 nM
IC50 (second compound 0.316 µM): < 31.6 nM
IC50 (second compound 1 µM): < 31.6 nM
IC50 (second compound 3.16 µM): < 31.6 nM
IC50 (second compound 10 µM): < 31.6 nM
SMILES: O=C(c1cc(Cc2n[nH]c(=O)c3ccccc23)ccc1F)N1CCN(C(=O)C2CC2)CC1 + CNC(=O)c1ccc(Nc2nc(OC3CCCC3)c3c(-c4ccc5nc(C)oc5c4)c[nH]c3n2)c(OC)c1
viability, T/C [1]: 90.9%
viability, T/C [2]: 78.5%
viability, T/C [3]: 83.2%
viability, T/C [4]: 77.7%
viability, T/C [5]: 56.9%
viability, T/C [6]: 29.4%
viability, T/C [7]: 31.1%
viability, T/C [8]: 27.2%
viability, T/C [9]: 24.9%
viability, T/C [10]: 28%
viability, T/C [11]: 30.4%
viability, T/C [12]: 20.8%
viability, T/C [13]: 18.6%
viability, T/C [14]: 20.8%
viability, T/C [15]: 16.2%
viability, T/C [16]: 21.2%
viability, T/C [17]: 19%
viability, T/C [18]: 17.9%
viability, T/C [19]: 15.9%
viability, T/C [20]: 15.2%
viability, T/C [21]: 16.8%
viability, T/C [22]: 15.3%
viability, T/C [23]: 17.7%
viability, T/C [24]: 15.8%
viability, T/C [25]: 16.9%
viability, T/C [26]: 17.1%
viability, T/C [27]: 19.4%
viability, T/C [28]: 17.3%
viability, T/C [29]: 15.5%
viability, T/C [30]: 17.7%
viability, T/C [31]: 16.2%
viability, T/C [32]: 14.3%
viability, T/C [33]: 15.3%
viability, T/C [34]: 18.2%
viability, T/C [35]: 16.1%
viability, T/C [36]: 17.4%
